Patent publication US7338778B2, “Luminescent method for determining cell oxygen consumption” (Becton, Dickinson and Company, priority 1991, dated 2008)

Legend:
[1] = tested on: Pseudomonas aeruginosa (ATCC #10145); details: 1.5×10^8 CFU/ml, 37° C., times less than two hours
Protocol: A suspension containing about 3×10^8 CFU/ml, of Pseudomonas aeruginosa (ATCC #10145) in Broth A was prepared using an A-Just nephelometer. A total of 150 ul of the suspension was placed in each well of the indicator trays prepared as in Example 1; these suspensions were then diluted with solutions of phenol or copper sulfate (which are deleterious to microbial growth) to a final concentration of 1.5×10^8 CFU/ml. The trays were incubated at 37° C. and their fluorescence measured in a Fluoroskan II at 10 minute intervals.

HL60 cells [2] = assay: Cytotoxicity assay in oxygen sensor plates; assay type: cell-based; details: Homo sapiens, read-out: IC50 O2 Sensor
Protocol: Oxygen sensor plates were prepared by the general methods described herein. Falcon 1177 polystyrene 96 well U-bottom plates (BD Labware) were used for all experiments. The fluorescent dye Ru(DPP)3Cl2 was adsorbed to silica gel by rotary evaporation of ethanolic solutions of the dye with the silica gel. The adsorbed dye-silica and a moisture-cure clear silicone were mixed manually and immediately applied to plate wells with approximately 17 uL silicone per well. These were cured for 2-3 days in a controlled humidity incubator.
All data was obtained with a BMG Polarstar fluorimeter at 37° C. using the bottom plate reading configuration. The bandpass filters were 465 nm for excitation and 590 nm for emission. For the experiments with […]®, a Cytofluor 4000 fluorometer was used with a 485 nm excitation filter and a 580 nm emission filter. Data was read at selected time intervals. Normalized fluorescence data was generally obtained by dividing well values at selected time points by the same well's initial reading with only media or buffer present prior to adding cells.
Cells used for cytotoxicity and quantitation experiments (HL60, U937; ATCC) were grown in tissue culture media recommended by the supplier (RPMI; Gibco and ATCC, respectively). The media was supplemented with either 20% fetal bovine serum (Hyclone) for the HL60 cells or 10% FBS for the U937 cells, with the addition of penicillin, streptomycin and fungizone (Gibco) to prevent microbial contamination. Cells were maintained in a tissue culture incubator (37° C., 5% CO2, 95% humidity) during all experiments between readings.
HL60 cells (human promyelocytic leukemia cell line, ATCC #45500) were grown in tissue culture media recommended by the supplier (RPMI; Gibco), supplemented with 20% fetal bovine serum, heat inactivated at 50° C. for thirty minutes with the addition of penicillin, streptomycin and fungizone (Gibco) to prevent microbial contamination. Cells were maintained in tissue culture incubator (37° C., 5% CO2, 95% humidity) during all experiments. Fluorescence of the oxygen sensor was read on a Polarstar™ fluorometer (BMG), using 465 nm excitation and 590 nm emission filters.
100 uL of tissue culture media was aliquoted into the wells of the Oxygen sensor plate and plate was allowed to equilibrate in the tissue culture incubator for 1 hour prior to taking the initial reading. This reading was used to normalize all subsequent readings to account for well to well variability. Cells were resuspended in fresh media at 960,000 cells/mi. Serial 1:2 dilution of this stock was performed and 100 uL of each dilution was alliquoted across the length of the plate in replicates of 12 (rows B-H), with final cell/well number from 1,500 to 96,000. In row A, 100 uL of tissue culture media was alliquoted into the wells in lieu of cells (no-cells control). Fluorescence measurements were taken every 24 hours over 5 days. The actual number of cells present was counted with a hemocytometer by sampling the parallel well (same seeding cell number). Mean fluorescence from 5 wells per data point (n=5) was plotted against the counted cell number (FIG. 10). Error bars are standard deviation of the mean.
The experiment was performed as described in Example 18, with the following exceptions. Serial dilutions of vinblastine were prepared at twice the final concentration (100 nM to 0.1 nM) in tissue culture media.100 uL of the drug dilution in tissue culture media was aliquoted across the width of the plate in replicates of five, reserving one column for no-drug (media only) control. After an initial reading, a constant number of cells (200,000/well) in 100 uL media were added to each well of rows A-E of the oxygen sensor plate, reserving rows F-H for no-cells control. Fluorescence was read at the indicated times. Mean fluorescence from 5 wells per data point (n=5) was plotted against vinblastine concentration (FIG. 12).

HL60 cells [3] = assay: Cytotoxicity assay by MTT; assay type: cell-based; details: Homo sapiens, read-out: IC50 MTT
Protocol: In parallel with the oxygen sensor assays, MTT assays were performed using a Cell Titer Kit™ (Promega), as in Example 20, with the following exceptions. For each time point (corresponding to oxygen sensor assay time point), one flat-bottom 96 well microtiter plate (Falcon) was used. 50 uL of drug dilution in tissue culture media was used for initial reading and cells were suspended in 50 uL media, to the final volume of 100 uL. At indicated time points, 10 uL of MTT reagent was added per well for 1 hour, after which 100 uL of the stop/lysis buffer was added. Plates were sealed with Parafilm™ and cell lysis occurred overnight. Absorbance (570 nm corrected by absorbance at 750 nm) was read using a Thermomax Microplate Reader (Molecular Devices). Mean absorbance from 5 wells per data point, with standard deviation as error bars, was plotted against vinblastine concentration (FIG. 13).
These experiments was performed as described in Example 20, with the exception that appropriate dilutions of the above reagents were substituted for vinblastine: 0.01 nM to 10000 nM methotrexate, 0.00001 to 10 mM sodium azide, and 2 to 2000 uM SDS respectively.

Structure (SMILES): O=S(=O)([O-])[O-].[Cu+2] [copper sulfate]
- concentration at which wells had no increase in fluorescence signal (absence of actively metabolizing organisms) [1]: greater than 500 mg/liter

Structure (SMILES): [N-]=[N+]=[N-] [Sodium Azide, sodium azide]
- IC50 (HL60 cells [2]; HL-60, 48 h): 13 µM
- IC50 (HL60 cells [2]; HL-60, 72 h): 13 µM
- IC50 (HL60 cells [2]; HL-60, 96 h): 9 µM
- IC50 (HL60 cells [2]; HL-60, 120 h): 5.8 µM
- IC50 (HL60 cells [3]; HL-60, 48 h): 25 µM
- IC50 (HL60 cells [3]; HL-60, 72 h): 25 µM
- IC50 (HL60 cells [3]; HL-60, 96 h): 3 µM
- IC50 (HL60 cells [3]; HL-60, 120 h): 1.6 µM

Structure (SMILES): CCCCCCCCCCCCOS(=O)(=O)[O-].[Na+] [SDS, Sodium Dodecyl Sulfate]
- IC50 (HL60 cells [2]; HL-60, HL60 cells, 24 hours): 340 µM
- IC50 (HL60 cells [2]; HL-60, HL60 cells, 48 hours): 300 µM
- IC50 (HL60 cells [2]; HL-60, HL60 cells, 72 hours): 300 µM
- IC50 (HL60 cells [3]; HL-60, HL60 cells, 24 hours): 500 µM
- IC50 (HL60 cells [3]; HL-60, HL60 cells, 48 hours): 440 µM
- IC50 (HL60 cells [3]; HL-60, HL60 cells, 72 hours): 430 µM

Structure (SMILES): CN(Cc1cnc2nc(N)nc(N)c2n1)c1ccc(C(=O)N[C@@H](CCC(=O)O)C(=O)O)cc1 [Methotrexate, methotrexate]
- IC50 (HL60 cells [2]; HL-60, HL60 cells, 96 hours): 0.019 µM
- IC50 (HL60 cells [2]; HL-60, HL60 cells, 120 hours): 0.012 µM
- IC50 (HL60 cells [3]; HL-60, HL60 cells, 120 hours): 0.014 µM
